Consider 55 molecules from patent US11873291B2, “Quinoline cGAS antagonist compounds” (ImmuneSensor Therapeutics, Inc., priority 2020, dated 2024).

This assay has as its target T1, recombinant human cGAS (aa147-522) (Homo sapiens, UniProt Q8N884).
T1 construct: recombinant human cGAS (aa147-522); His6-SUMO (cleaved yes); made in house; host or cells: E. coli BL21/pLys
The assay is described as follows: In vitro inhibition assay of cGAS activity (ATP consumption, KinaseGlo Max). It is filed as biochemical. The settings on record: Table 2, read-out: cGAS Inhibition Results IC50. The essentials:
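De-tagged recombinant human cGAS (aa147-522, 1.5 μg/mL) was incubated 20 min at 37 °C with herring testis DNA, 6.6 μM ATP and 0.1 mM GTP in Tris pH 7.5/MgCl2 buffer plus serial compound dilutions. Remaining ATP was read by KinaseGlo Max luminescence, and IC50 was fitted from % ATP consumption versus log concentration.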

SMILES strings stand for the structures.

T1 sequence (Q8N884 147-522): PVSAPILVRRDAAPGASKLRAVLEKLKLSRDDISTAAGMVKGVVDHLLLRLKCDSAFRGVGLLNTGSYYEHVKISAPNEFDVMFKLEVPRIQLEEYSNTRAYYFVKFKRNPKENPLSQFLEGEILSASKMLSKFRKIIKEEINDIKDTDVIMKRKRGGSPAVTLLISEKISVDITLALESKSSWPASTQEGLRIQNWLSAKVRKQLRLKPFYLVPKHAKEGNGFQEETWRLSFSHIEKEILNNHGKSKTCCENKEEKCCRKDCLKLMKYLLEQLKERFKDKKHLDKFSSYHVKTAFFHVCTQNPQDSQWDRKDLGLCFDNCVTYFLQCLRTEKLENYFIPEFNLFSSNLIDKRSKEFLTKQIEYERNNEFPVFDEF

In the case of `O=C1NCCC1Nc1cc(-n2ccnc2)c2ccc(Cl)cc2n1` (stereo not shown) [I-367], the IC50 (usually the concentration that gives 50% inhibition) is > 30 µM. As for `NS(=O)(=O)CC1CCCCN1c1cc(-n2ccnc2)c2ccc(Cl)c(Cl)c2n1` (stereo not shown) [I-368], the IC50 fell in the range of 2 to 30 µM. Then `O=C(O)C1CN(c2cc(-c3cn[nH]c3)c3ccc(Cl)c(Cl)c3n2)CCO1` (stereo not shown) [I-369], with < 2 µM; and `Clc1ccc2c(-c3cn[nH]c3)cc(N3CCOC(c4nnn[nH]4)C3)nc2c1Cl` (stereo not shown) [I-370], with < 2 µM; and `NC(=O)C1CN(c2cc(-c3cn[nH]c3)c3ccc(Cl)c(Cl)c3n2)CCO1` (stereo not shown) [I-371], with < 2 µM.

Regarding `OC[C@@H]1CN(c2cc(-c3cn[nH]c3)c3ccc(Cl)c(Cl)c3n2)CCO1` [I-372], the IC50 was < 2 µM. Then `NS(=O)(=O)C1CCCN(c2cc(-c3cn[nH]c3)c3ccc(Cl)c(Cl)c3n2)C1` (stereo not shown) [I-373], with < 2 µM; and `O=C(O)[C@H]1CCCN1c1cc(-n2ccnc2)c2ccc(Cl)c(Cl)c2n1` [I-374], with < 2 µM. Then `OCCC1CCCN(c2cc(-c3cn[nH]c3)c3ccc(Cl)c(Cl)c3n2)C1` (stereo not shown) [I-375], with 2 to 30 µM.

With `O=C1CC[C@@H](CO)N1c1cc(-n2ccnc2)c2ccc(Cl)c(Cl)c2n1` [I-376], the IC50 is > 30 µM. Then `COc1ccc2c(-c3cn[nH]c3)cc(NCCO)nc2c1` [I-377], with > 30 µM; and `Clc1ccc2c(-n3ccnc3)cc(-c3cn[nH]c3)nc2c1Cl` [I-378], with < 2 µM; and `O=C(O)COc1c(Br)ccc2c(-n3ccnc3)cc(-c3ccccc3)nc12` [I-379, 2-((7-bromo-4-(1H-imidazol-1-yl)-2-phenylquinolin-8-yl)oxy)acetic acid], with 2 to 30 µM. Then `Brc1ccc2c(-n3ccnc3)cc(-c3cccs3)nc2c1` [I-380, 7-bromo-4-(1H-imidazol-1-yl)-2-(thiophen-2-yl)quinoline], with 2 to 30 µM; and `COc1ccccc1-c1cc(-n2ccnc2)c2ccc(Br)cc2n1` [I-381], with > 30 µM; and `COc1cccc(-c2cc(-n3ccnc3)c3ccc(Br)cc3n2)c1` [I-382], with 2 to 30 µM. The figure for `Brc1ccc2c(-n3ccnc3)cc(-c3ccncc3)nc2c1` [I-383] is > 30 µM; for `Brc1ccc2c(-n3ccnc3)cc(-c3cccnc3)nc2c1` [I-384] it is 2 to 30 µM; for `Cc1ccc(-c2cc(-n3ccnc3)c3ccc(Br)cc3n2)cc1` [I-385] it is 2 to 30 µM. As for `O=C(O)[C@H]1CCCN1C(=O)C[C@@H]1CCCN1c1cc(-n2ccnc2)c2ccc(Cl)c(Cl)c2n1` [I-386], the IC50 is < 2 µM.

Turning to `CC(C)(NC(=O)C[C@@H]1CCCN1c1cc(-n2ccnc2)c2ccc(Cl)c(Cl)c2n1)C(=O)O` [I-387], the half-maximal inhibitory concentration (IC50) was < 2 µM. For the molecule `O=C(C[C@@H]1CCCN1c1cc(-n2ccnc2)c2ccc(Cl)c(Cl)c2n1)N[C@@H](C(=O)O)c1ccccc1` [I-388], the half-maximal inhibitory concentration (IC50) fell in the range of 2 to 30 µM. Then `CN(CCC(=O)N1CCC[C@H]1C(=O)O)c1cc(-c2cn[nH]c2)c2ccc(Cl)c(Cl)c2n1` [I-389], with < 2 µM. On to `COC(=O)CCS(=O)(=O)NC[C@@H]1CCCN1c1cc(-n2ccnc2)c2ccc(Cl)c(Cl)c2n1` [I-390], for which the IC50 was in the range of 2 to 30 µM.

With `O=C(O)c1ccccc1S(=O)(=O)NC[C@@H]1CCCN1c1cc(-n2ccnc2)c2ccc(Cl)c(Cl)c2n1` [I-391], the 50% inhibitory concentration (IC50) was < 2 µM. For `O=c1[nH]c(=O)c2ccc(S(=O)(=O)NC[C@@H]3CCCN3c3cc(-n4ccnc4)c4ccc(Cl)c(Cl)c4n3)cc2[nH]1` [I-392], the IC50 was 2 to 30 µM. For the molecule `O=C1COc2ccc(S(=O)(=O)NC[C@@H]3CCCN3c3cc(-n4ccnc4)c4ccc(Cl)c(Cl)c4n3)cc2N1` [I-393], the IC50 was > 30 µM. Then `CN(CCNS(=O)(=O)c1ccc(C(F)(F)F)cc1)c1cc(-n2ccnc2)c2ccc(Cl)cc2n1` [I-394], with > 30 µM; and `CC(=O)OCC(=O)NC1CCCN(c2cc(-n3ccnc3)c3ccc(Cl)cc3n2)C1` (stereo not shown) [I-395, 2-((1-(7-chloro-4-(1H-imidazol-1-yl)quinolin-2-yl)piperidin-3-yl)amino)-2-oxoethyl acetate], with 2 to 30 µM; and `N#CCCO[PH](=O)OCC1CCCN(c2cc(-c3cn[nH]c3)c3ccc(Cl)c(Cl)c3n2)C1` (stereo not shown) [I-396], with < 2 µM.

Turning to `O=P(O)(O)CCCNc1cc(-c2cn[nH]c2)c2ccc(Cl)c(Cl)c2n1` [I-397, (3-((7,8-dichloro-4-(1H-pyrazol-4-yl)quinolin-2-yl)amino)propyl)phosphonic acid], the IC50 is < 2 µM.

As for `CC(C)(C)OC(=O)NS(=O)(=O)N1CCOC(CNc2cc(-n3ccnc3)c3ccc(Cl)c(Cl)c3n2)C1` (stereo not shown) [I-398, tert-butyl ((2-(((7,8-dichloro-4-(1H-imidazol-1-yl)quinolin-2-yl)amino)methyl)morpholino)sulfonyl)carbamate], the IC50 lay in the range of 2 to 30 µM.

For the molecule `CC(C)(C)OC(=O)N1CCOC(CNc2cc(-c3cn[nH]c3)c3ccc(Cl)c(Cl)c3n2)C1` (stereo not shown) [I-399], the IC50 was 2 to 30 µM. The figure for `CC(=O)OCC(=O)N1CCOC(CNc2cc(-c3cn[nH]c3)c3ccc(Cl)c(Cl)c3n2)C1` (stereo not shown) [I-400] is 2 to 30 µM; for `COc1c(Cl)ccc2c(NCCO)cc(-c3cn[nH]c3)nc12` [I-401] it is > 30 µM.

`C[C@@H](Nc1cc(-c2cn[nH]c2)c2ccc(Cl)c(Cl)c2n1)C(=O)OC(C)(C)C` [I-402]: the IC50 is 2 to 30 µM. Turning to `COc1c(Cl)ccc2c(-c3cn[nH]c3)cc(NCCO)nc12` [I-403], the IC50 was > 30 µM.

Regarding `Clc1ccc2c(Cl)cc(-c3cn[nH]c3)nc2c1Cl` [I-404, 4,7,8-trichloro-2-(1H-pyrazol-4-yl)quinoline], the IC50 was > 30 µM. As for `Cc1cc(-n2ccnc2)c2ccc(Cl)c(Cl)c2n1` [I-405, 7,8-dichloro-4-(1H-imidazol-1-yl)-2-methylquinoline], the IC50 was 2 to 30 µM.

Consider `Cc1cc(-c2cn[nH]c2)c2ccc(Cl)c(Cl)c2n1` [I-406, 7,8-dichloro-2-methyl-4-(1H-pyrazol-4-yl)quinoline], for which the IC50 was in the range of 2 to 30 µM.

Regarding `Cc1cc(-c2ccn[nH]2)c2ccc(Cl)c(Cl)c2n1` [I-407], the IC50 was > 30 µM. Then `Clc1cccc2c(-n3ccnc3)ccnc12` [I-408, 8-chloro-4-(1H-imidazol-1-yl)quinoline], with > 30 µM; and `Brc1ccc2nccc(-n3ccnc3)c2c1` [I-409], with > 30 µM; and `c1ccc2c(-n3ccnc3)ccnc2c1` [I-410], with > 30 µM. Take `Cc1nccn1-c1ccnc2ccccc12` [I-411]: the IC50 was > 30 µM. Turning to `Brc1ccc2c(-n3ccnc3)ccnc2c1` [I-412], the half-inhibitory concentration (IC50) lay within 2 to 30 µM.

On to `c1ccc2c(-n3cccn3)ccnc2c1` [I-413], for which the IC50 is > 30 µM. Take `Brc1ccc2c(-n3cccn3)ccnc2c1` [I-414]: the 50% inhibitory concentration (IC50) was > 30 µM. In the case of `Brc1ccc2nccc(-n3cccn3)c2c1` [I-415], the IC50 is > 30 µM.

For the molecule `Fc1ccc2c(-n3ccnc3)ccnc2c1` [I-416], the IC50 was > 30 µM. Take `COc1ccc2c(-n3ccnc3)ccnc2c1` [I-417]: the half-inhibitory concentration (IC50) is > 30 µM. In the case of `Brc1ccc2c(-n3cncn3)ccnc2c1` [I-418], the IC50 is > 30 µM. The figure for `Brc1ccc2c(-n3nccn3)ccnc2c1` [I-419] is > 30 µM. With `Brc1ccc2c(-n3ccnn3)ccnc2c1` [I-420], the IC50 was > 30 µM.

On to `Cc1c(Cl)ccc2c(-n3ccnc3)ccnc12` [I-421, 7-chloro-4-(1H-imidazol-1-yl)-8-methylquinoline], for which the IC50 was in the range of 2 to 30 µM.
